Data taken from patent EP4043444A1, “SUBSTITUTED ISOXAZOLINE DERIVATIVES” (priority 2021, dated 2022).
Read-outs that look alike come from different tables or passages of the source.

Columns and labels:
Type in all cases: in vivo
[1] = test system: Green Peach Aphid (Myzus persicae) (mixed life stages); test: Green Peach Aphid control through systemic means, artificial diet under artificial membrane; details: Myzus persicae, 72 h, read-out: mortality (Aphid mortality)
Text: For evaluating control of Green Peach Aphid through systemic means the test unit consisted of 96-well-microtiter plates containing liquid artificial diet under an artificial membrane. The compounds were formulated using a solution containing 75% v/v water and 25% v/v DMSO. Different concentrations of formulated compounds were pipetted into the aphid diet, using a custom-built pipette, at two replications. After application, 5 - 8 adult aphids were placed on the artificial membrane inside the microtiter plate wells. The aphids were then allowed to suck on the treated aphid diet and incubated at about 23 + 1°C and about 50 + 5 % relative humidity for 3 days. Aphid mortality and fecundity was then visually assessed.

[2] = test system: Greenhouse Whitefly (Trialeurodes vaporarirorum); test: Greenhouse Whitefly control, 96-well microtiter plates with eggplant leaf disk and eggs; details: foliar, 144 h, read-out: mortality (Mortality of hatched crawlers)
Experimental: For evaluating control of Greenhouse Whitefly, the test unit consisted of 96-well-microtiter plates containing a leaf disk of eggplant leaf disk with Whitefly eggs. The compounds or mixtures were formulated using a solution containing 75% water and 25% DMSO. Different concentrations of formulated were sprayed onto the […] at 2.5µl, using a custom-built micro atomizer, at two replications. After application, microtiter plates were incubated at 23 + 1°C, 65 + 5% RH for 6 days. Mortality of hatched crawlers was then visually assessed.

[3] = test system: Boll weevil (Anthonomus grandis); test: Boll weevil control, 96-well microtiter plates with insect diet and eggs; details: Anthonomus grandis, 120 h, read-out: mortality (Egg and larval mortality)
Experimental: For evaluating control of boll weevil, the test unit consisted of 96-well-microtiter plates containing an insect diet and 5-10 A. grandis eggs.
The compounds were formulated using a solution containing 75% v/v water and 25% v/v DMSO. Different concentrations of formulated compounds were sprayed onto the insect diet at 5µl, using a custom-built micro atomizer, at two replications.
After application, microtiter plates were incubated at about 25 + 1°C and about 75 + 5 % relative humidity for 5 days. Egg and larval mortality were then visually assessed.

[4] = test system: Tobacco Budworm (Heliothis virescens); test: Tobacco Budworm control, 96-well microtiter plates with insect diet and eggs; details: Heliothis virescens, 120 h, read-out: mortality (Egg and larval mortality)
Experimental: For evaluating control of Tobacco Budworm, the test unit consisted of 96-well-microtiter plates containing an insect diet and 15-25 H. virescens eggs. The compounds were formulated using a solution containing 75% v/v water and 25% v/v DMSO. Different concentrations of formulated compounds were sprayed onto the insect diet at 10µl, using a custom-built micro atomizer, at two replications. After application, microtiter plates were incubated at about 28 + 1°C and about 80 + 5 % relative humidity for 5 days. Egg and larval mortality was then visually assessed.

[5] = test system: Yellow Fever Mosquito (Aedes aegypti); test: whole plant or invertebrate; details: 48 h, 2 days, in comparison with untreated controls, read-out: mortality (Larval mortality)
Experimental: For evaluating control of Yellow Fever Mosquito the test unit consisted of 96-well-microtiter plates containing 200µl of tap water per well and 5-15 freshly hatched A. aegypti larvae. The active compounds were formulated using a solution containing 75% (v/v) water and 25% (v/v) DMSO. Different concentrations of formulated compounds or mixtures were sprayed onto the insect diet at 2.5µl, using a custom-built micro atomizer, at two replications.
After application, microtiter plates were incubated at 28 + 1°C, 80 + 5 % RH for 2 days. Larval mortality was then visually assessed.

[6] = 2500ppm, sprayed onto insect diet, 5 days, in comparison with untreated controls

Measured: mortality at 2500 ppm

O=C(Nc1ccc(F)cc1F)c1cc(NC2=NOC(c3cccc(C(F)(F)F)c3)(C(F)(F)F)C2)ccc1Cl (stereo not shown) [I-20, 2-chloro-N-(2,4-difluorophenyl)-5-[[5-(trifluoromethyl)-5-[3-(trifluoromethyl)phenyl]-4H-isoxazol-3-yl]amino]benzamide]
≥ 75%: [1] | [2] | [3] | [4]; [6]

O=C(N[C@@H]1CON(CC(F)(F)F)C1=O)c1cc(NC2=NOC(c3cc(Cl)c(F)c(Cl)c3)(C(F)(F)F)C2)ccc1Cl (stereo partly drawn) [I-119, 2-chloro-5-[[5-(3,5-dichloro-4-fluoro-phenyl)-5-(trifluoromethyl)-4H-isoxazol-3-yl]amino]-N-[(4R)-3-oxo-2-(2,2,2-trifluoroethyl)isoxazolidin-4-yl]benzamide]
≥ 75%: [5] | [1] | [3] | [4]

N#CC1(NC(=O)c2cc(NC3=NOC(c4cc(Cl)cc(Cl)c4)(C(F)(F)F)C3)ccc2OC(F)(F)F)CC1 (stereo not shown) [I-150]
≥ 75%: [5] | [1] | [3] | [4]; [6]

O=C(Nc1ccc(F)cc1F)c1cc(NC2=NOC(c3cc(Cl)cc(Cl)c3)(C(F)(F)F)C2)ccc1F (stereo not shown) [I-154]
≥ 75%: [5] | [1] | [3] | [4]; [6]

O=C(Nc1ccc(F)cc1F)c1cc(NC2=NOC(c3cc(Cl)cc(Cl)c3)(C(F)(F)F)C2)ccc1OC(F)F (stereo not shown) [I-157]
≥ 75%: [5] | [1] | [3] | [4]; [6]

O=C(Nc1ccc(F)cc1F)c1cc(NC2=NOC(c3cc(Cl)cc(Cl)c3)(C(F)(F)F)C2)ccc1C(F)(F)F (stereo not shown) [I-158]
≥ 75%: [5] | [1] | [3] | [4]; [6]

CCN1OC[C@@H](NC(=O)c2cc(NC3=NOC(c4cc(Cl)cc(Cl)c4)(C(F)(F)F)C3)ccc2F)C1=O (stereo partly shown) [I-162]
≥ 75%: [5] | [1] | [3] | [4]; [6]

CCN1OC[C@@H](NC(=O)c2cc(NC3=NOC(c4cc(Cl)cc(Cl)c4)(C(F)(F)F)C3)ccc2C)C1=O (stereo partly shown) [I-163]
≥ 75%: [5] | [1] | [3] | [4]; [6]

CCN1OC[C@@H](NC(=O)c2cc(NC3=NOC(c4cc(Cl)cc(Cl)c4)(C(F)(F)F)C3)ccc2C(F)(F)F)C1=O (stereo partly shown) [I-166]
≥ 75%: [5] | [1] | [3] | [4]; [6]

Cc1ccc(NC2=NOC(c3cc(Cl)cc(Cl)c3)(C(F)(F)F)C2)cc1C(=O)NC1CC1 (stereo not shown) [I-169]
≥ 75%: [5] | [1] | [3] | [4]; [6]

O=C(NC1CC1)c1cc(NC2=NOC(c3cc(Cl)cc(Cl)c3)(C(F)(F)F)C2)ccc1OC(F)(F)F (stereo not shown) [I-172]
≥ 75%: [5] | [1] | [3] | [4]; [6]

O=C(NCC(F)(F)F)c1cc(NC2=NOC(c3cc(Cl)cc(Cl)c3)(C(F)(F)F)C2)ccc1OC(F)F (stereo not shown) [I-178]
≥ 75%: [5] | [1] | [3] | [4]; [6]

O=C(NCC(F)(F)F)c1cc(NC2=NOC(c3cc(Cl)cc(Cl)c3)(C(F)(F)F)C2)ccc1OC(F)(F)F (stereo not shown) [I-179]
≥ 75%: [5] | [1] | [3] | [4]; [6]
